Data: article PMC8185074, “Anchor extension: a structure-guided approach to design cyclic peptides targeting enzyme active sites” (Nature Communications, 2021)
Peptide text beside a SMILES is read from it.

Columns and labels:
Assay type in all cases: biochemical
HDAC8 = biological target: T1, HDAC8 (Homo sapiens, UniProt Q9BY41); test: HDAC8 inhibition, full IC50 measurement (Reaction Biology; fluorogenic p53 peptide RHKK(Ac)AMC); conditions: for HDAC8 activity raw data (signal): t1/t2 replicates
T1 construct: purchased Reaction Biology Corporation (assay run by the CRO)
T1 sequence (Q9BY41 1-377): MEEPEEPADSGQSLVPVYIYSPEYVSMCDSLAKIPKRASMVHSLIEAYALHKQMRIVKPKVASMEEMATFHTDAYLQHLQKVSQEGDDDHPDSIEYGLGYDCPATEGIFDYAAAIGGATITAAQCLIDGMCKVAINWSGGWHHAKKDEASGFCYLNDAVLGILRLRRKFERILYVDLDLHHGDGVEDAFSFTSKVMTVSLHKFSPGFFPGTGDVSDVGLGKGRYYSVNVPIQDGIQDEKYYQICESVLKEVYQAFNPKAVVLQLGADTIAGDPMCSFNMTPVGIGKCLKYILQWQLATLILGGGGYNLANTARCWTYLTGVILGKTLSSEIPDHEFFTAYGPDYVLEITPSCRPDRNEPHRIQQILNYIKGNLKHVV
How it was run: (§1)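 Inhibitory peptides were acoustically dispensed with enzyme, then substrate added; 1 h at 30 °C. Developer stopped reaction; plateau endpoint fluorescence (360/460 nm) gave IC50.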

HDAC1 = biological target: T2, HDAC1 (Homo sapiens, UniProt Q13547); test: HDAC1 inhibition, full IC50 measurement (Reaction Biology; fluorogenic p53 peptide RHKK(Ac)AMC); conditions: for HDAC1 activity raw data (signal): t1/t2 replicates
T2 construct: purchased Reaction Biology Corporation (assay run by the CRO)
How it was run: as §1

HDAC2 [1] = biological target: T3, HDAC2 (Homo sapiens, UniProt Q92769); test: Initial HDAC2 IC50 estimate (BPS Biosciences HDAC fluorogenic assay kit); conditions: Supplementary Dataset 2; read-out: HDAC2 activity (initial activity)
T3 construct: purchased Reaction Biology Corporation (assay run by the CRO)
How it was run: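 Inhibition measured by kit-based fluorogenic HDAC activity assays, with each point in duplicate or triplicate. Values come from a full 1 µM–100 pM series (1:10 steps) or are range estimates from just 20 nM and 200 nM.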

HDAC2 [2] = biological target: T3, HDAC2; test: HDAC2 inhibition, full IC50 measurement (Reaction Biology; fluorogenic p53 peptide RHKK(Ac)AMC); conditions: for IC50: read-out: HDAC2 IC50
How it was run: as §1

[3] = peptide conc. 1.00E-05 M, listed as des1.1.0_t1
[4] = peptide conc. 1.00E-05 M, listed as des1.1.0_t2
[5] = peptide conc. 1.11E-06 M, listed as des1.1.0_t1
[6] = peptide conc. 1.11E-06 M, listed as des1.1.0_t2
[7] = peptide conc. 1.23E-07 M, listed as des1.1.0_t1
[8] = peptide conc. 1.23E-07 M, listed as des1.1.0_t2
[9] = peptide conc. 1.37E-08 M, listed as des1.1.0_t1
[10] = peptide conc. 1.52E-09 M, listed as des1.1.0_t1
[11] = peptide conc. 1.52E-09 M, listed as des1.1.0_t2
[12] = peptide conc. 3.33E-06 M, listed as des1.1.0_t1
[13] = peptide conc. 3.33E-06 M, listed as des1.1.0_t2
[14] = peptide conc. 3.70E-07 M, listed as des1.1.0_t1
[15] = peptide conc. 3.70E-07 M, listed as des1.1.0_t2
[16] = peptide conc. 4.12E-08 M, listed as des1.1.0_t1
[17] = peptide conc. 4.12E-08 M, listed as des1.1.0_t2
[18] = peptide conc. 4.57E-09 M, listed as des1.1.0_t1
[19] = peptide conc. 4.57E-09 M, listed as des1.1.0_t2
[20] = peptide conc. 5.08E-10 M, listed as des1.1.0_t1
[21] = peptide conc. 5.08E-10 M, listed as des1.1.0_t2

T3 sequence (Q92769 whole entry): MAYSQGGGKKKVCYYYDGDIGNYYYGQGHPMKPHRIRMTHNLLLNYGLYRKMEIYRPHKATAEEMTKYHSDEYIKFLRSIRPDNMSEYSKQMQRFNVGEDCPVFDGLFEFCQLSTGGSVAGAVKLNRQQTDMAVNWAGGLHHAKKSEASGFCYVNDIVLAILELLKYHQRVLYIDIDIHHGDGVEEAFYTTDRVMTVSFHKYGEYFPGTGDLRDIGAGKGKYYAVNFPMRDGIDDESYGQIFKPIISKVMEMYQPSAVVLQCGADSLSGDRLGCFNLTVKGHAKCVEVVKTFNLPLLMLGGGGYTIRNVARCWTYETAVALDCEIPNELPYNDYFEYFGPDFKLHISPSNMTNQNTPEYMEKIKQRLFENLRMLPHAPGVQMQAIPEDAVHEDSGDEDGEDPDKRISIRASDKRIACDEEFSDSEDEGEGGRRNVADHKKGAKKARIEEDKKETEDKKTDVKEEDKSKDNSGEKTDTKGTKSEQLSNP
T2 sequence (Q13547 whole entry): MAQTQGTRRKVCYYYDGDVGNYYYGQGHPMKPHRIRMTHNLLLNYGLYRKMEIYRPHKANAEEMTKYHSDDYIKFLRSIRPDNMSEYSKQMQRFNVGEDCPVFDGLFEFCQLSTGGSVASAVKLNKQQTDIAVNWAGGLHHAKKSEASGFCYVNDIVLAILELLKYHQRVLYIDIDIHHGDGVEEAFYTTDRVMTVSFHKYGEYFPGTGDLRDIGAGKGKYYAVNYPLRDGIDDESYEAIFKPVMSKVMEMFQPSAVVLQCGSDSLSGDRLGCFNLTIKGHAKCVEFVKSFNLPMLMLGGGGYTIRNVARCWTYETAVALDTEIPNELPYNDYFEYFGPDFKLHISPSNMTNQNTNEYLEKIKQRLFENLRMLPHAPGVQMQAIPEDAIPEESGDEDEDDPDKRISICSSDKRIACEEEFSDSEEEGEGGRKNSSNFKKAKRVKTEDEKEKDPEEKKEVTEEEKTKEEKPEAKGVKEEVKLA

NCCCC[C@@H]1NC(=O)[C@@H]2CCCN2C(=O)[C@H](CC(N)=O)NC(=O)[C@H](CCCCCS)NC(=O)CNC(=O)[C@H](Cc2c[nH]c3ccccc23)NC(=O)[C@@H](CCCCN)NC(=O)[C@H](CCC(N)=O)NC1=O [des1.1.0, SHA-Asn-Pro-Lys-Gln-dLys-Trp-Gly] (HELM PEPTIDE1{G.[O=C([C@H](CCCCCS)N[*:1])[*:2]].N.P.K.Q.[dK].W}$PEPTIDE1,PEPTIDE1,1:R1-8:R2$$$V2.0)
HDAC8 activity raw data (signal) (HDAC8; [3]): 10236983
HDAC8 activity raw data (signal) (HDAC8; [4]): 10257985
HDAC8 activity raw data (signal) (HDAC8; [5]): 29747792
HDAC8 activity raw data (signal) (HDAC8; [6]): 28102681
HDAC8 activity raw data (signal) (HDAC8; [7]): 42994609
HDAC8 activity raw data (signal) (HDAC8; [8]): 40726222
HDAC8 activity raw data (signal) (HDAC8; [9]): 47328720
HDAC8 activity raw data (signal) (HDAC8; [10]): 53395040
HDAC8 activity raw data (signal) (HDAC8; [11]): 46072556
HDAC8 activity raw data (signal) (HDAC8; [12]): 22600954
HDAC8 activity raw data (signal) (HDAC8; [13]): 20891410
HDAC8 activity raw data (signal) (HDAC8; [14]): 39809686
HDAC8 activity raw data (signal) (HDAC8; [15]): 39972357
HDAC8 activity raw data (signal) (HDAC8; [16]): 43706367
HDAC8 activity raw data (signal) (HDAC8; [17]): 45310513
HDAC8 activity raw data (signal) (HDAC8; [18]): 46840747
HDAC8 activity raw data (signal) (HDAC8; [19]): 46072556
HDAC8 activity raw data (signal) (HDAC8; [20]): 54262535
HDAC8 activity raw data (signal) (HDAC8; [21]): 46072556
HDAC1 activity raw data (signal) (HDAC1; [3]): 20784
HDAC1 activity raw data (signal) (HDAC1; [4]): 14494
HDAC1 activity raw data (signal) (HDAC1; [5]): 173781
HDAC1 activity raw data (signal) (HDAC1; [6]): 153537
HDAC1 activity raw data (signal) (HDAC1; [7]): 723204
HDAC1 activity raw data (signal) (HDAC1; [8]): 656726
HDAC1 activity raw data (signal) (HDAC1; [9]): 1174733
HDAC1 activity raw data (signal) (HDAC1; peptide conc. 1.37E-08 M, listed as des1.1.0_t2): 1037204
HDAC1 activity raw data (signal) (HDAC1; [10]): 1283411
HDAC1 activity raw data (signal) (HDAC1; [11]): 1084142
HDAC1 activity raw data (signal) (HDAC1; [12]): 63841
HDAC1 activity raw data (signal) (HDAC1; [13]): 53160
HDAC1 activity raw data (signal) (HDAC1; [14]): 422237
HDAC1 activity raw data (signal) (HDAC1; [15]): 392419
HDAC1 activity raw data (signal) (HDAC1; [16]): 1039124
HDAC1 activity raw data (signal) (HDAC1; [17]): 863645
HDAC1 activity raw data (signal) (HDAC1; [18]): 1182029
HDAC1 activity raw data (signal) (HDAC1; [19]): 1065379
HDAC1 activity raw data (signal) (HDAC1; [20]): 1239936
HDAC1 activity raw data (signal) (HDAC1; [21]): 1111104
IC50 (HDAC2 [1]): 0.01 to 0.1 µM
HDAC2 activity raw data (signal) (HDAC2 [2]; Conc. 1.00E-05 M, t1): 26927
HDAC2 activity raw data (signal) (HDAC2 [2]; Conc. 1.00E-05 M, t2): 32005
HDAC2 activity raw data (signal) (HDAC2 [2]; Conc. 1.11E-06 M, t1): 219707
HDAC2 activity raw data (signal) (HDAC2 [2]; Conc. 1.11E-06 M, t2): 218492
HDAC2 activity raw data (signal) (HDAC2 [2]; Conc. 1.23E-07 M, t1): 761586
HDAC2 activity raw data (signal) (HDAC2 [2]; Conc. 1.23E-07 M, t2): 802228
HDAC2 activity raw data (signal) (HDAC2 [2]; Conc. 1.37E-08 M, t1): 1027147
HDAC2 activity raw data (signal) (HDAC2 [2]; Conc. 1.37E-08 M, t2): 1098979
HDAC2 activity raw data (signal) (HDAC2 [2]; Conc. 1.52E-09 M, t1): 1105616
HDAC2 activity raw data (signal) (HDAC2 [2]; Conc. 1.52E-09 M, t2): 1105020
HDAC2 activity raw data (signal) (HDAC2 [2]; Conc. 3.33E-06 M, t1): 102737
HDAC2 activity raw data (signal) (HDAC2 [2]; Conc. 3.33E-06 M, t2): 85727
HDAC2 activity raw data (signal) (HDAC2 [2]; Conc. 3.70E-07 M, t1): 469170
HDAC2 activity raw data (signal) (HDAC2 [2]; Conc. 3.70E-07 M, t2): 506124
HDAC2 activity raw data (signal) (HDAC2 [2]; Conc. 4.12E-08 M, t1): 943203
HDAC2 activity raw data (signal) (HDAC2 [2]; Conc. 4.12E-08 M, t2): 906297
HDAC2 activity raw data (signal) (HDAC2 [2]; Conc. 4.57E-09 M, t1): 1010930
HDAC2 activity raw data (signal) (HDAC2 [2]; Conc. 4.57E-09 M, t2): 1048769
HDAC2 activity raw data (signal) (HDAC2 [2]; Conc. 5.08E-10 M, t1): 1134293
HDAC2 activity raw data (signal) (HDAC2 [2]; Conc. 5.08E-10 M, t2): 1187103
IC50 (HDAC2 [2]; figure legends, Supp. Table 1): 0.289 µM

N[C@@H](CCCCCS)C(=O)O [SHA, 2S-2-amino-7-sulfanylheptanoic acid]
HDAC8 inhibition potency in words (HDAC8): low micro-molar to high nano-molar affinities
HDAC8 raw activity signal (HDAC8; Conc. 1.00E-05 M): 485885
HDAC8 raw activity signal (HDAC8; Conc. 1.11E-06 M): 715893
HDAC8 raw activity signal (HDAC8; Conc. 1.23E-07 M): 664184
HDAC8 raw activity signal (HDAC8; Conc. 1.37E-08 M): 813063
HDAC8 raw activity signal (HDAC8; Conc. 1.52E-09 M): 850527
HDAC8 raw activity signal (HDAC8; Conc. 3.33E-06 M): 572309
HDAC8 raw activity signal (HDAC8; Conc. 3.70E-07 M): 755715
HDAC8 raw activity signal (HDAC8; Conc. 4.12E-08 M): 855669
HDAC8 raw activity signal (HDAC8; Conc. 4.57E-09 M): 817878
HDAC8 raw activity signal (HDAC8; Conc. 5.08E-10 M): 743919
HDAC1 inhibition potency in words (HDAC1): low micro-molar to high nano-molar affinities
HDAC1 raw activity signal (HDAC1; Conc. 1.00E-05 M): 155805
HDAC1 raw activity signal (HDAC1; Conc. 1.11E-06 M): 648714
HDAC1 raw activity signal (HDAC1; Conc. 1.23E-07 M): 748850
HDAC1 raw activity signal (HDAC1; Conc. 1.37E-08 M): 768411
HDAC1 raw activity signal (HDAC1; Conc. 1.52E-09 M): 737474
HDAC1 raw activity signal (HDAC1; Conc. 3.33E-06 M): 525567
HDAC1 raw activity signal (HDAC1; Conc. 3.70E-07 M): 713862
HDAC1 raw activity signal (HDAC1; Conc. 4.12E-08 M): 763721
HDAC1 raw activity signal (HDAC1; Conc. 4.57E-09 M): 780017
HDAC1 raw activity signal (HDAC1; Conc. 5.08E-10 M): 759317
IC50 (HDAC2 [1]): 5 µM
HDAC2 inhibition potency in words (HDAC2 [2]): low micro-molar to high nano-molar affinities
HDAC2 raw activity signal (HDAC2 [2]; Conc. 1.00E-05 M): 210566
HDAC2 raw activity signal (HDAC2 [2]; Conc. 1.11E-06 M): 643731
HDAC2 raw activity signal (HDAC2 [2]; Conc. 1.23E-07 M): 728862
HDAC2 raw activity signal (HDAC2 [2]; Conc. 1.37E-08 M): 787686
HDAC2 raw activity signal (HDAC2 [2]; Conc. 1.52E-09 M): 708004
HDAC2 raw activity signal (HDAC2 [2]; Conc. 3.33E-06 M): 523867
HDAC2 raw activity signal (HDAC2 [2]; Conc. 3.70E-07 M): 682189
HDAC2 raw activity signal (HDAC2 [2]; Conc. 4.12E-08 M): 772929
HDAC2 raw activity signal (HDAC2 [2]; Conc. 4.57E-09 M): 735698
HDAC2 raw activity signal (HDAC2 [2]; Conc. 5.08E-10 M): 743884
IC50 (HDAC2 [2]): 5.4 µM
